Where a name gives a salt, the structure may show the parent alone.
Target: mGluR5 receptor (Sus scrofa, UniProt I3LUI7)
Experiment: Affinity for the mGluR5 receptor: inhibition of 3[H]-MPEP binding in pig brain homogenate
Settings: for inhibition at 10 µM: 10 μM compound, 5 nM 3[H]-MPEP, read-out: mGluR5 receptor inhibition of ^3[H]-MPEP binding [10 μM] in % at a concentration of the example compounds of 10 μM; for IC50: 3[H]-MPEP binding
Outline: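 Pig brain membranes (450 μg protein; hemispheres without medulla, cerebellum and pons) in 30 mM Hepes pH 8.0 were incubated 60 min at room temperature with 5 nM [3H]-MPEP and compound at 10 μM. Bound radioactivity was filtered and counted. Nonspecific binding was defined with 10 μM MPEP.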

Chain of mGluR5 receptor (I3LUI7 19-1212): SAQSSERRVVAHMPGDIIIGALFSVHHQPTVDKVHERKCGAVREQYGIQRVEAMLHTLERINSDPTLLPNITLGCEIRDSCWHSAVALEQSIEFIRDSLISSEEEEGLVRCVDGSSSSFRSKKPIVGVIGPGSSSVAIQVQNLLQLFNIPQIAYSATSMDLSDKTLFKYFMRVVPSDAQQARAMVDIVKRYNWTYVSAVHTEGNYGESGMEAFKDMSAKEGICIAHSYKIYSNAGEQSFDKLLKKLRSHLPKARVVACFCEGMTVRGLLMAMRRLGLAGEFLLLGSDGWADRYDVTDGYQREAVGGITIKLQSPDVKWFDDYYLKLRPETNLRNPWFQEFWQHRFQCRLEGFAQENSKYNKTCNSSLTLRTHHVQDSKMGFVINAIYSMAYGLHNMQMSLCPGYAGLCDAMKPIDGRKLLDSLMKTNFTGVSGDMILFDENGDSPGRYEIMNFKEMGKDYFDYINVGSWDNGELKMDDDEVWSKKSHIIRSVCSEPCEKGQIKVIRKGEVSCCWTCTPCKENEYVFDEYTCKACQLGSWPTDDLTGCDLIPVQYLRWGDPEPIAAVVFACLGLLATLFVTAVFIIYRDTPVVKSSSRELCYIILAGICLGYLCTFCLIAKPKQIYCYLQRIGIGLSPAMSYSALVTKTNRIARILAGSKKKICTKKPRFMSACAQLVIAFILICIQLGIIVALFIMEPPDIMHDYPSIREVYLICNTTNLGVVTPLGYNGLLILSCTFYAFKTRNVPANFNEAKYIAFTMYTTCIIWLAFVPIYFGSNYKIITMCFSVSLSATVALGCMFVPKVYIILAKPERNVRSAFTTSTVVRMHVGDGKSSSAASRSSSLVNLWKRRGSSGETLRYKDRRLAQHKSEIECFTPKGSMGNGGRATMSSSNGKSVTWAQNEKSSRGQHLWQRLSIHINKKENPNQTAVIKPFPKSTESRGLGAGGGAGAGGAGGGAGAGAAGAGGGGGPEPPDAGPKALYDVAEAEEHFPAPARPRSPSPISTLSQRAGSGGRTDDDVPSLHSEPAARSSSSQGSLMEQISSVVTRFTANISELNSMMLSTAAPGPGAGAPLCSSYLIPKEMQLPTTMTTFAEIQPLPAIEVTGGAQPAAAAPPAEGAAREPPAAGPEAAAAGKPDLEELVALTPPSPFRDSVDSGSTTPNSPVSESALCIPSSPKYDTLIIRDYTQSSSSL

inhibition at 10 µM [%]	IC50 [µM]	Structure (SMILES)
75		Clc1ccc2nc(-c3ccc(C#Cc4ccccn4)cc3)c(NC3CCCCC3)n2c1 [Example 315, 6-chloro-N-cyclohexyl-2-(4-(pyridin-2-ylethynyl)phenyl)imidazo[1,2-a]pyridin-3-amine]
55		CC(C)(C)Nc1c(-c2ccc(C#Cc3ccccn3)o2)nc2ccc(Cl)cn12 [Example 316, N-tert-butyl-6-chloro-2-(5-(pyridin-2-ylethynyl)furan-2-yl)imidazo[1,2-a]pyridin-3-amine]
58		Clc1ccc2nc(-c3ccc(C#Cc4ccccn4)o3)c(NC3CCCCC3)n2c1 [Example 317, 6-chloro-N-cyclohexyl-2-(5-(pyridin-2-ylethynyl)furan-2-yl)imidazo[1,2-a]pyridin-3-amine]
43		CC(C)(C)CC(C)(C)Nc1c(-c2ccc(C#Cc3ccccn3)o2)nc2ccc(Cl)cn12 [Example 318, 6-chloro-2-(5-(pyridin-2-ylethynyl)furan-2-yl)-N-(2,4,4-trimethylpentan-2-yl)imidazo[1,2-a]pyridin-3-amine]
81		Cc1cccc(C#Cc2cccc(-c3nc4ccc(Cl)cn4c3NC3CCCC3)c2)n1 [Example 319, 6-chloro-N-cyclopentyl-2-(3-((6-methylpyridin-2-yl)ethynyl)phenyl)imidazo[1,2-a]pyridin-3-amine]
77		Cc1cccc(C#Cc2cccc(-c3nc4ccc(Cl)cn4c3NC(C)(C)C)c2)n1 [Example 320, N-tert-butyl-6-chloro-2-(3-((6-methylpyridin-2-yl)ethynyl)phenyl)imidazo[1,2-a]pyridin-3-amine]
	0.12	CNc1c(-c2ccc(C#Cc3ccccn3)s2)nc2cnccn12 [Example 322, N-methyl-2-(5-(pyridin-2-ylethynyl)thiophen-2-yl)imidazo[1,2-a]pyrazin-3-amine]
	0.059	CC(C)(C)CC(C)(C)Nc1c(-c2ccc(C#Cc3ccccn3)s2)nc2ccccn12 [Example 324, [2-(5-pyridin-2-ylethynyl-thiophen-2-yl)-imidazo[1,2-a]pyridin-3-yl]-(1,1,3,3-tetramethyl-butyl)-amine]
	0.013	CC(C)(C)Nc1c(-c2ccc(C#Cc3ncccn3)s2)nc2ccccn12 [Example 325, tert-butyl-[2-(5-pyrimidin-2-ylethynyl-thiophen-2-yl)-imidazo[1,2-a]pyridin-3-yl]-amine hydrochloride]
	0.039	CC(C)(C)Nc1c(-c2ccc(C#Cc3ncccc3N)s2)nc2ccccn12 [Example 326, {2-[5-(3-amino-pyridin-2-ylethynyl)-thiophen-2-yl]-imidazo[1,2-a]pyridin-3-yl}-tert-butyl-amine]
	0.014	CC(C)(C)Nc1c(-c2ccc(C#Cc3nccs3)s2)nc2ccccn12 [Example 332, tert-butyl-[2-(5-thiazol-2-ylethynyl-thiophen-2-yl)-imidazo[1,2-a]pyridin-3-yl]-amine hydrochloride]
	0.42	CC(C)(C)Nc1c(-c2ccc(C#Cc3cccc(OC(F)(F)F)c3)s2)nc2cnccn12 [Example 333, tert-butyl-{2-[5-(3-trifluoromethoxy-phenylethynyl)-thiophen-2-yl]-imidazo[1,2-a]pyrazin-3-yl}-amine]
	10	CC(C)(C)Nc1c(-c2ccc(C#Cc3cccc(C4OCCO4)c3)s2)nc2ccccn12 [Example 334, tert-butyl-{2-[5-(3-[1,3]dioxolan-2-yl-phenylethynyl)-thiophen-2-yl]-imidazo[1,2-a]pyridin-3-yl}-amine]
	0.0061	CC(C)(C)Nc1c(-c2ccc(C#Cc3ncccc3F)s2)nc2ccccn12 [Example 336, tert-butyl-{2-[5-(3-fluoro-pyridin-2-ylethynyl)-thiophen-2-yl]-imidazo[1,2-a]pyridin-3-yl}-amine hydrochloride]
	6.26	Cn1cncc1C#Cc1ccc(-c2nc3ccccn3c2NC(C)(C)C)s1 [Example 337, tert-butyl-{2-[5-(3-methyl-3H-imidazol-4-ylethynyl)-thiophen-2-yl]-imidazo[1,2-a]pyridin-3-yl}-amine hydrochloride]
52		CC(C)(C)Nc1c(-c2ccc(C#Cc3ccc(Cl)s3)s2)nc2ccccn12 [Example 338, tert-butyl-{2-[5-(5-chloro-thiophen-2-ylethynyl)-thiophen-2-yl]-imidazo[1,2-a]pyridin-3-yl}-amine hydrochloride]
	0.32	Cc1ccc(C#Cc2ccc(-c3nc4ccccn4c3NC(C)(C)C)s2)nc1 [Example 339, tert-butyl-{2-[5-(5-methyl-pyridin-2-ylethynyl)-thiophen-2-yl]-imidazo[1,2-a]pyridin-3-yl}-amine hydrochloride]
	0.62	CC(=O)c1cccc(C#Cc2ccc(-c3nc4ccccn4c3NC(C)(C)C)s2)c1 [Example 340, 1-{3-[5-(3-tert-butylamino-imidazo[1,2-a]pyridin-2-yl)-thiophen-2-ylethynyl]-phenyl}-ethanone hydrochloride]
	0.24	CC(C)(C)Nc1c(-c2ccc(C#Cc3cccc(CO)c3)s2)nc2ccccn12 [Example 341, {3-[5-(3-tert-butylamino-imidazo[1,2-a]pyridin-2-yl)-thiophen-2-ylethynyl]-phenyl}-methanol hydrochloride]
	1.36	COc1cccnc1C#Cc1ccc(-c2nc3ccccn3c2NC(C)(C)C)s1 [Example 342, N-tert-butyl-2-(5-((3-methoxypyridin-2-yl)ethynyl)thiophen-2-yl)imidazo[1,2-a]pyridin-3-amine]
	0.093	CC(C)(C)Nc1c(-c2ccc(C#Cc3cccs3)s2)nc2ccccn12 [Example 343, N-tert-butyl-2-(5-(thiophen-2-ylethynyl)thiophen-2-yl)imidazo[1,2-a]pyridin-3-amine hydrochloride]
	0.17	CC(C)(C)Nc1c(-c2ccc(C#Cc3ccc(F)c(C#N)c3)s2)nc2ccccn12 [Example 344, 5-((5-(3-(tert-butylamino)imidazo[1,2-a]pyridin-2-yl)thiophen-2-yl)ethynyl)-2-fluorobenzonitrile hydrochloride]
	0.67	COCc1cccc(C#Cc2ccc(-c3nc4ccccn4c3NC(C)(C)C)s2)c1 [Example 346, N-tert-butyl-2-(5-((3-(methoxymethyl)phenyl)ethynyl)thiophen-2-yl)imidazo[1,2-a]pyridin-3-amine]
	0.92	CC(C)(C)Nc1c(-c2ccc(C#Cc3cccc(N)c3)s2)nc2ccccn12 [Example 347, 2-(5-((3-aminophenyl)ethynyl)thiophen-2-yl)-N-tert-butylimidazo[1,2-a]pyridin-3-amine hydrochloride]
44		Cc1cc(C#Cc2ccc(-c3nc4ccccn4c3NC(C)(C)C)s2)ccc1F [Example 348, N-tert-butyl-2-(5-((4-fluoro-3-methylphenyl)ethynyl)thiophen-2-yl)imidazo[1,2-a]pyridin-3-amine hydrochloride]
39		CC(C)(C)Nc1c(-c2ccc(C#Cc3cc(F)cc(F)c3)s2)nc2ccccn12 [Example 349, N-tert-butyl-2-(5-((3,5-difluorophenyl)ethynyl)thiophen-2-yl)imidazo[1,2-a]pyridin-3-amine]
	0.57	CC(C)(C)Nc1c(-c2ccc(C#Cc3ccsc3)s2)nc2ccccn12 [Example 350, N-tert-butyl-2-(5-(thiophen-3-ylethynyl)thiophen-2-yl)imidazo[1,2-a]pyridin-3-amine hydrochloride]
